This note sets out measurements from patent publication US10670605B2, “Cysteine reactive probes and uses thereof” (The Scripps Research Institute, priority 2015, dated 2020).

What all share (format): binding
For experiment [1], the target named is pro-CASP10 (Homo sapiens, UniProt Q92851). The experiment in a line: Blockade of probe 61 labeling of pro-CASP10.
In experiment [2] the target is T1, pro-CASP8 (Homo sapiens, UniProt Q14790, D374A/D384A).
T1 construct: a truncated CASP8 (residues 217-479) without the CARD domain; His6 (C); made in house; host or cells: E. coli BL21(DE3)pLysS
The experiment in a line: Click probe 61 labeling of pro-CASP8 and its competition. Particulars: 300 nM protein in MDA-MB-231 lysate; read-out: apparent IC50 for blockade of 61 labeling of pro-CASP8.

Experiment [3] addresses T2, IMPDH2 (C140) (Homo sapiens, UniProt P12268).
T2 construct: Full length cDNAs encoding for IDH1 (Open Biosystems, Clone ID: 3880331) and IMPDH2 (Open Biosystems, Clone ID: 3447994); His6 (C); made in house; host or cells: E. coli BL21(DE3)
Nature of the experiment: Click probe 18 labeling of recombinant IMPDH2 and its competition. To be noted: for inhibition of 18 labeling of IMPDH2 by nucleotides: 500 μM of each nucleotide.

T1 sequence (Q14790 217-479 D374A/D384A): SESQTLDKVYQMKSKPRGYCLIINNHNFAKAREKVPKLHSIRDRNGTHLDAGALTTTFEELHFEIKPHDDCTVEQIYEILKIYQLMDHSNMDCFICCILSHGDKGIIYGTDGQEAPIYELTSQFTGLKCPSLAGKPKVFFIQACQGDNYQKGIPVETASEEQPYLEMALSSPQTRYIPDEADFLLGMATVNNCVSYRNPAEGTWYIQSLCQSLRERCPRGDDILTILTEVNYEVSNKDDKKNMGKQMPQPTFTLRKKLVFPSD
Sequence of pro-CASP10 (Q92851 220-521): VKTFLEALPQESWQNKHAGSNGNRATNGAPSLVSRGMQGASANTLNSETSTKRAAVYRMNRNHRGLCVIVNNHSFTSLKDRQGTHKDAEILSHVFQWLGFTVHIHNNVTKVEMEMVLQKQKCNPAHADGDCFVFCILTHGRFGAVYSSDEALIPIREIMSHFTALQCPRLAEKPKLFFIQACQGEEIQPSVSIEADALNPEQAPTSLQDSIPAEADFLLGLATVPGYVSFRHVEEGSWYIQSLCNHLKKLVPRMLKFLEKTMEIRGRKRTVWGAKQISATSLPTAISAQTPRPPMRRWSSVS

Take `O=C(c1ccc(N2CCOCC2)cc1)N1CCC[C@H](N(C(=O)CCl)c2ccccc2)C1` [63-S]: the “activity against CASP10 (in words)” value in experiment [1] is “inactive against CASP10”. Besides, in experiment [2], the concentration for half-maximal inhibition (IC50) was 15 µM.

In the case of `Nc1ncnc2c1ncn2[C@@H]1O[C@H](COP(=O)(O)O)[C@@H](O)[C@H]1O` [AMP], the “inhibition of 18 labeling of IMPDH2 by nucleotides” value (“inhibition of 18 labeling of IMPDH2” below) in experiment [3] is listed as “inhibited”.

As to `Nc1ncnc2c1ncn2[C@@H]1O[C@H](COP(=O)(O)OP(=O)(O)OP(=O)(O)O)[C@@H](O)[C@H]1O` [ATP], in experiment [3], the “inhibition of 18 labeling of IMPDH2” value is “inhibited”. Besides, the IC50 in experiment [3] (probe 18 25 μM, ATP 15 min pre-incubation, read-out: IC50 for blockade of 18 labeling of IMPDH2) was found to be 45 µM.

For the compound `Nc1nc2c(ncn2[C@@H]2O[C@H](COP(=O)(O)OP(=O)(O)OP(=O)(O)O)[C@@H](O)[C@H]2O)c(=O)[nH]1` [GTP], in experiment [3], the “inhibition of 18 labeling of IMPDH2” value is on record as “inhibited”.

One may read the IC50 as the midpoint of a concentration-inhibition curve.
